The text below walks through data of patent US20090048258A1, “Amide Compound” (priority 2005, published 2009).

Some results are limits rather than exact numbers.

For this assay, the target named is T1, Human DGAT1 (Homo sapiens, UniProt O75907).
T1 construct: my translation of the primer: M-G-DYKDDDD-GDRGSSRRR) (N); made in house; host or cells: Sf9 insect cells (recombinant baculovirus BAC-DGAT1, pFASTBAC1); microsome fraction
T1 sequence (O75907 1-488): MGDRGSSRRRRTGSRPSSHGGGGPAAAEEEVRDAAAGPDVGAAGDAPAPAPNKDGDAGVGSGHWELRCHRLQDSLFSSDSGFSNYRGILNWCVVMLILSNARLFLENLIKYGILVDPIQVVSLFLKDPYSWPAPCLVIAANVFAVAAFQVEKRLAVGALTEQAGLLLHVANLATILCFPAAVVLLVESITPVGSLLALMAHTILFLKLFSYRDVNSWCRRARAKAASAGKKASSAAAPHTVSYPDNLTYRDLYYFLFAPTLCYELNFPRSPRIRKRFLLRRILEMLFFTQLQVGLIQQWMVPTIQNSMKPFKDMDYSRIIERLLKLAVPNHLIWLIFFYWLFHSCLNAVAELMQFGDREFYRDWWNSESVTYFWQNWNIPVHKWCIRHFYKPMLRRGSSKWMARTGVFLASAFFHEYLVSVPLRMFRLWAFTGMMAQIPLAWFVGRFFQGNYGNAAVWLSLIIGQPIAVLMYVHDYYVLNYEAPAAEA
Put plainly: DGAT inhibitory activity: [14C]-triglyceride synthesis by DGAT1 high expression Sf9 microsome. In kind it is biochemical. The settings on record: Table 2, 25 μM dioleoylglycerol, 25 μM [14C]-Oleoyl-CoA, 32° C., 15 min, read-out: DGAT inhibitory activity (according to IC50). The method, boiled down: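 DGAT1 was overexpressed from recombinant baculovirus in Sf9 cells, and microsomes from these cells were the enzyme source. Reactions ran in 100 mM Tris-HCl pH 7.5, 250 mM sucrose, 150 mM MgCl2 and 0.01% BSA. [14C]-triglyceride was extracted into chloroform, separated by TLC and quantified by imaging plate, with inhibition calculated against control and blank (no microsome) counts.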
By IC50 is commonly meant the concentration that gives 50% inhibition. As for `CCOc1ccc(C(=O)CCC(=O)Nc2cc(-c3ccccc3C(=O)O)cc(-c3ccccc3)n2)cc1OCC` [Example 148, 2-(2-{[4-(3,4-diethoxyphenyl)-4-oxobutanoyl]amino}-6-phenylpyridin-4-yl)benzoic acid], the IC50 was in the range of 0.5 to 10 µM. Next, `CCOc1ccc(C(=O)CCC(=O)Nc2cc(-c3ccc(O)c(OC)c3)cc(-c3ccccc3)n2)cc1OCC` [Example 149, 4-(3,4-diethoxyphenyl)-N-[4-(4-hydroxy-3-methoxyphenyl)-6-phenylpyridin-2-yl]-4-oxobutanamide]: 0.01 to 0.05 µM; `CCOc1ccc(C(=O)CCC(=O)Nc2cc(-c3cc(OC)c(OC)c(OC)c3)cc(-c3ccccc3)n2)cc1OCC` [Example 150, 4-(3,4-diethoxyphenyl)-4-oxo-N-[6-phenyl-4-(3,4,5-trimethoxyphenyl)pyridin-2-yl]butanamide]: 0.5 to 10 µM. Take `CCOc1ccc(C(=O)CCC(=O)Nc2cc(-c3cc(C)c(O)c(C)c3)cc(-c3ccccc3)n2)cc1OCC` [Example 151, 4-(3,4-diethoxyphenyl)-N-[4-(4-hydroxy-3,5-dimethylphenyl)-6-phenylpyridin-2-yl]-4-oxobutanamide]: the IC50 fell in the range of 0.01 to 0.05 µM. The same measure for `CCCCCC/C=C/c1cc(NC(=O)CCC(=O)c2ccc(OCC)c(OCC)c2)nc(-c2ccccc2)c1` [Example 152, 4-(3,4-diethoxyphenyl)-N-{4-[(1E)-octa-1-en-1-yl]-6-phenylpyridin-2-yl}-4-oxobutanamide]: 0.5 to 10 µM; for `Cn1cc(-c2cc(NC(=O)CCC(=O)c3ccc4c(c3)CCO4)nc(-c3ccccc3)c2)cn1` [Example 153, 4-(2,3-dihydro-1-benzofuran-5-yl)-N-[4-(1-methyl-1H-pyrazol-4-yl)-6-phenylpyridin-2-yl]-4-oxobutanamide]: 0.5 to 10 µM; for `O=C(CCC(=O)c1ccc2c(c1)CCO2)Nc1cc(-c2ccc3[nH]ccc3c2)cc(-c2ccccc2)n1` [Example 154, 4-(2,3-dihydro-1-benzofuran-5-yl)-N-[4-(1H-indol-5-yl)-6-phenylpyridin-2-yl]-4-oxobutanamide]: 0.01 to 0.05 µM. Regarding `COc1ccc(-c2cc(NC(=O)CCC(=O)c3ccc4c(c3)CCO4)nc(-c3ccccc3)c2)cc1` [Example 155, 4-(2,3-dihydro-1-benzofuran-5-yl)-N-[4-(4-methoxyphenyl)-6-phenylpyridin-2-yl]-4-oxobutanamide], the IC50 lay within 0.05 to 0.5 µM.

In the case of `O=C(CCC(=O)c1ccc2c(c1)CCO2)Nc1cc(-c2ccc(CO)cc2)cc(-c2ccccc2)n1` [Example 156, 4-(2,3-dihydro-1-benzofuran-5-yl)-N-{4-[4-(hydroxymethyl)phenyl]-6-phenylpyridin-2-yl}-4-oxobutanamide], the IC50 fell in the range of 0.05 to 0.5 µM.

Take `O=C(O)CCc1ccc(-c2cc(NC(=O)CCC(=O)c3ccc4c(c3)CCO4)nc(-c3ccccc3)c2)cc1` [Example 157, 3-[4-(2-{[4-(2,3-dihydro-1-benzofuran-5-yl)-4-oxobutanoyl]amino}-6-phenylpyridin-4-yl)phenyl]propanoic acid]: the IC50 is 0.5 to 10 µM. The same measure for `COC(=O)CCc1ccc(-c2cc(NC(=O)CCC(=O)c3ccc4c(c3)CCO4)nc(-c3ccccc3)c2)cc1` [Example 158, methyl 3-[4-(2-{[4-(2,3-dihydro-1-benzofuran-5-yl)-4-oxobutanoyl]amino}-6-phenylpyridin-4-yl)phenyl]propanoate]: 0.05 to 0.5 µM; for `COC(=O)/C=C/c1ccc(-c2cc(NC(=O)CCC(=O)c3ccc4c(c3)CCO4)nc(-c3ccccc3)c2)cc1` [Example 159, methyl (2E)-3-[4-(2-{[4-(2,3-dihydro-1-benzofuran-5-yl)-4-oxobutanoyl]amino}-6-phenylpyridin-4-yl)phenyl]acrylate]: 0.5 to 10 µM.

Consider `O=C(CCC(=O)c1ccc2c(c1)CCO2)Nc1cc(-c2ccc(N3CCOCC3)cc2)cc(-c2ccccc2)n1` [Example 160, 4-(2,3-dihydro-1-benzofuran-5-yl)-N-[4-(4-(morpholin-4-yl)phenyl)-6-phenylpyridin-2-yl]-4-oxobutanamide], for which the IC50 fell in the range of 0.5 to 10 µM.

On to `O=C(CCC(=O)c1ccc2c(c1)CCO2)Nc1cc(-c2ccc(CN3CCOCC3)cc2)cc(-c2ccccc2)n1` [Example 161, 4-(2,3-dihydro-1-benzofuran-5-yl)-N-{4-[4-(morpholin-4-ylmethyl)phenyl]-6-phenylpyridin-2-yl}-4-oxobutanamide], for which the IC50 lay in the range of 0.5 to 10 µM. Next, `CN(C)c1ccc(-c2cc(NC(=O)CCC(=O)c3ccc4c(c3)CCO4)nc(-c3ccccc3)c2)cc1` [Example 162, 4-(2,3-dihydro-1-benzofuran-5-yl)-N-{4-[4-(dimethylamino)phenyl]-6-phenylpyridin-2-yl}-4-oxobutanamide]: 0.05 to 0.5 µM; `N#Cc1cccc(-c2cc(NC(=O)CCC(=O)c3ccc4c(c3)CCO4)nc(-c3ccccc3)c2)c1` [Example 163, N-[4-(3-cyanophenyl)-6-phenylpyridin-2-yl]-4-(2,3-dihydro-1-benzofuran-5-yl)-4-oxobutanamide]: 0.05 to 0.5 µM. The same measure for `N#CCc1cccc(-c2cc(NC(=O)CCC(=O)c3ccc4c(c3)CCO4)nc(-c3ccccc3)c2)c1` [Example 164, N-{4-[3-(cyanomethyl)phenyl]-6-phenylpyridin-2-yl}-4-(2,3-dihydro-1-benzofuran-5-yl)-4-oxobutanamide]: 0.01 to 0.05 µM. `O=C(CCC(=O)c1ccc2c(c1)CCO2)Nc1cc(-c2cccc(O)c2)cc(-c2ccccc2)n1` [Example 165, 4-(2,3-dihydro-1-benzofuran-5-yl)-N-[4-(3-hydroxyphenyl)-6-phenylpyridin-2-yl]-4-oxobutanamide]: the IC50 fell in the range of 0.01 to 0.05 µM. Next, `CCCCOc1cccc(-c2cc(NC(=O)CCC(=O)c3ccc4c(c3)CCO4)nc(-c3ccccc3)c2)c1` [Example 166, N-[4-(3-butoxyphenyl)-6-phenylpyridin-2-yl]-4-(2,3-dihydro-1-benzofuran-5-yl)-4-oxobutanamide]: 0.5 to 10 µM.

Consider `O=C(CCC(=O)c1ccc2c(c1)CCO2)Nc1cc(-c2cccc(CO)c2)cc(-c2ccccc2)n1` [Example 167, 4-(2,3-dihydro-1-benzofuran-5-yl)-N-{4-[3-(hydroxymethyl)phenyl]-6-phenylpyridin-2-yl}-4-oxobutanamide], for which the IC50 is 0.05 to 0.5 µM. The same measure for `O=C(CCC(=O)c1ccc2c(c1)CCO2)Nc1cc(-c2cccc(CCCO)c2)cc(-c2ccccc2)n1` [Example 168, 4-(2,3-dihydro-1-benzofuran-5-yl)-N-{4-[3-(3-hydroxypropyl)phenyl]-6-phenylpyridin-2-yl}-4-oxobutanamide]: 0.05 to 0.5 µM; for `O=C(CCC(=O)c1ccc2c(c1)CCO2)Nc1cc(-c2cccc(C(=O)O)c2)cc(-c2ccccc2)n1` [Example 169, 3-(2-{[4-(2,3-dihydro-1-benzofuran-5-yl)-4-oxobutanoyl]amino}-6-phenylpyridin-4-yl)benzoic acid]: 0.5 to 10 µM; for `COC(=O)c1cccc(-c2cc(NC(=O)CCC(=O)c3ccc4c(c3)CCO4)nc(-c3ccccc3)c2)c1` [Example 170, methyl 3-(2-{[4-(2,3-dihydro-1-benzofuran-5-yl)-4-oxobutanoyl]amino}-6-phenylpyridin-4-yl)benzoate]: 0.5 to 10 µM. The same measure for `CC(=O)c1cccc(-c2cc(NC(=O)CCC(=O)c3ccc4c(c3)CCO4)nc(-c3ccccc3)c2)c1` [Example 171, N-[4-(3-acetylphenyl)-6-phenylpyridin-2-yl]-4-(2,3-dihydro-1-benzofuran-5-yl)-4-oxobutanamide]: 0.05 to 0.5 µM; for `O=C(O)CCc1cccc(-c2cc(NC(=O)CCC(=O)c3ccc4c(c3)CCO4)nc(-c3ccccc3)c2)c1` [Example 172, 3-[3-(2-{[4-(2,3-dihydro-1-benzofuran-5-yl)-4-oxobutanoyl]amino}-6-phenylpyridin-4-yl)phenyl]propanoic acid]: 0.5 to 10 µM. With `COC(=O)CCc1cccc(-c2cc(NC(=O)CCC(=O)c3ccc4c(c3)CCO4)nc(-c3ccccc3)c2)c1` [Example 173, methyl 3-[3-(2-{[4-(2,3-dihydro-1-benzofuran-5-yl)-4-oxobutanoyl]amino}-6-phenylpyridin-4-yl)phenyl]propanoate], the half-maximal inhibitory concentration (IC50) was 0.01 to 0.05 µM. Regarding `O=C(O)/C=C/c1cccc(-c2cc(NC(=O)CCC(=O)c3ccc4c(c3)CCO4)nc(-c3ccccc3)c2)c1` [Example 174, (2E)-3-[3-(2-{[4-(2,3-dihydro-1-benzofuran-5-yl)-4-oxobutanoyl]amino)-6-phenylpyridin-4-yl)phenyl]acrylic acid], the IC50 is 0.5 to 10 µM. Next, `O=C(CCC(=O)c1ccc2c(c1)CCO2)Nc1cc(-c2cccc(OC(F)(F)F)c2)cc(-c2ccccc2)n1` [Example 175, 4-(2,3-dihydro-1-benzofuran-5-yl)-4-oxo-N-{6-phenyl-4-[3-(trifluoromethoxy)phenyl]pyridin-2-yl}butanamide]: 0.05 to 0.5 µM.

For the molecule `N#Cc1ccccc1-c1cc(NC(=O)CCC(=O)c2ccc3c(c2)CCO3)nc(-c2ccccc2)c1` [Example 176, N-[4-(2-cyanophenyl)-6-phenylpyridin-2-yl]-4-(2,3-dihydro-1-benzofuran-5-yl)-4-oxobutanamide], the IC50 is not above 0.01 µM.
